Measurements reported in patent publication US20160299149A1, “ASSAYS AND METHODS FOR CELL PROLIFERATION-TARGETED TREATMENT THERAPIES” (University of Central Florida Research Foundation, Inc., priority 2015, published 2016).
Like-named read-outs stand apart in the source and are kept apart here.

Legend:
MALME-3M cells = assay: Cytotoxicity IC50 in metastatic melanoma cells; format: cell-based
Source text: (§1) Graphical bars extending to the right of the 0 growth percent line indicates growth inhibition by compound A of those specific cell lines.

melanoma cell lines = assay: NCI 60-cancer cell screen; format: cell-based; settings: for sensitivity of MALME-3M in NCI 60-cancer cell screen: MALME-3M (low Cav-1 and high Cav-2)
Source text: as §1

[1] = test system: MALME-3M cells and MALME-3 control cells; assay: Spermidine competition / percent viability with compound A; format: cell-based
Experimental: Aminoguanidine (AG) at 1 mM was determined to be non-toxic and was incubated with cells for 24 h prior to compound addition. Control represents the untreated cells. All experiments were performed in triplicate. Spermidine (Spd, 100 μM) was non-toxic to both cell lines. […] Compound A is a valid polyamine transport probe.

DFMO-treated cells = assay: Polyamine transport inhibitor assay 2: PTI blocks uptake of rescuing spermidine into DFMO-treated cells; format: cell-based
Experimental: FIG. 6A is a diagram showing an assay wherein the uptake of rescuing dose of spermidine into DFMO-treated cells is blocked by a PTI (GW 5074).
(§2) DFMO was dosed to give 50% relative viability versus an untreated control, i.e. DFMO is dosed at its IC50 value. Exogenous spermidine (Spd, 1 μM) is added to the DFMO treated cells and provided significant rescue of these cells to >80% viability depending upon the cell line. A successful PTI was able to block the entry of the spermidine rescuing agent into DFMO treated cells and result in a cell viability near the DFMO control (i.e. 50% viability). The inventors identified the following cell viabilities: DFMO only (50%), Spd only (100%), PTI (>90%), DFMO+Spd (>80%), DFMO+Spd+PTI (50%). The PTI provides a dose dependent lowering of cell viability in the presence of DFMO and a rescuing dose of spermidine. […] Identifying cells that respond to exogenous spermidine allow this assay to be possible and the c-myc and ATP13A3 biomarkers help predict these outcomes as well as the Vmax measurements for ^3H Spd import.

amine oxidases = assay: Metabolic stability to amine oxidases; format: in vitro ADME, calf; settings: unmethylated compound judged without the protective aminoguanidine (AG)
Source text: (§3) Table 1 compares unmethylated Compound A (containing primary amine termini), and N-methylated Compound A (containing N-methyl termini). […] This is due to the presence of the terminal N-methyl groups in A.

PanO2 derived tumors = assay: Histology (Ki67, cleaved caspase) of PanO2 derived tumors; format: in vivo; settings: PanO2 derived tumors in C57Bl/6 mice
Source text: FIG. 14 illustrates histological stained images of Ki67, a proliferation marker, and cleaved caspase in the presence of DFMO or DFMO+ the trimer44NMe PTI

[2] = test system: L3.6pl, Panc1, CHO and PanO2 cells; assay: Cell line sensitivity to DFMO and spermidine rescue challenge; format: cell-based
[3] = test system: L3.6pl pancreatic cancer cells; assay: Western blot of ATP13A3 and Cav-1 protein levels with DFMO; format: cell-based, human; settings: 72 h incubation at 37° C.
Experimental: (§4) FIGS. 9A-B provide graphical illustrations of the modulation of ATP13A3 and Cav-1, respectively, by DFMO and DFMO+Spermidine in L3.6pl human pancreatic cancer cells after 72 h incubation at 37° C. In FIG. 9A ATP13A3 protein levels after 72 h incubation at 37° C. are shown in L3.6pl (top) and Bx-PC3 (bottom) pancreatic cancer cells in the presence of DFMO or DFMO+Spd as analyzed by Western blot. Expression was normalized using β-actin levels. […] Note an increase in Cav-1 levels would stabilize caveolae at the cell surface and reduce the uptake of polyamines via a caveolin dependent pathway. A decrease in Cav-1 levels would increase polyamine import.

[4] = test system: BxPC-3 pancreatic cancer cells; assay: as above; format: cell-based, human; settings: 72 h incubation at 37° C.
Experimental: as §4

L3.6pl cells [5] = assay: DFMO 48 h IC50 in L3.6pl cells; format: cell-based, human
Experimental: FIG. 19B provides a graphical illustration of the effect of scrambled siRNA vs. ATP13A3 siRNA on relative L3.6pl cell viability % when challenged with a 48 h IC50 dose of DFMO (8 mM) and a rescuing dose of Spd (1 μM).
FIG. 20B provides a graphical illustration of the effect of scrambled siRNA vs. ATP13A3 siRNA on relative L3.6pl cell viability % when challenged with a 48 h IC50 dose of DFMO (8 mM) and a rescuing dose of Spd (1 μM).

L3.6pl cells [6] = assay: Assay 2 with GW5074 PTI in L3.6pl cells; format: cell-based, human; settings: 500 cells/well, 48 h at 37° C., 250 μM aminoguanidine
Experimental: as §2

L3.6pl pancreatic tumor = assay: Human L3.6pl pancreatic tumor in nude mice, combination with 1% DFMO; format: in vivo; settings: GW5074 1 mg/kg i.p. 5 days per week for 2 weeks, trimer44NMe equimolar (1.8 mg/kg), 1% DFMO in drinking water
Experimental: The extension of these findings is that cells which have high c-myc and ATP13A3 expression will be sensitive to the therapy described herein. These therapies were evaluated in vivo.
The first set of experiments was in nude mice (immune compromised) using human L3.6pl pancreatic cancer cells which have high ATP13A3 and high c-myc expression and high Vmax. […] Note TTI′ in FIGS. 12 and 13 refer to the polyamine-based trimer44NMe PTI compound.
0.5×10^6 L3.6pl tumor cells were injected into the pancreas of nude mice and allowed to grow for 1 week. 1% DFMO was administered in the drinking water (changed weekly) for 2 weeks. […] Mice were collected and pancreatic tissue/tumor, with spleen attached, was weighed.

CHO cells = assay: PTS targeting: cytotoxicity IC50 in PTS-active cells; format: cell-based
Source text: as §3

MALME-3 cells = assay: Cytotoxicity IC50 in matched control cells; format: cell-based; settings: in the presence of aminoguanidine (1 mM)
CHO-MG* cells = assay: PTS targeting: cytotoxicity IC50 in PTS-deficient cells; format: cell-based
Source text: as §3

[7] = MALME-3M, 96 h, read-out: 96 h IC50
[8] = in the presence of aminoguanidine (1 mM)
[9] = with aminoguanidine (AG), read-out: CHO IC50 w/ AG
[10] = without aminoguanidine (AG), read-out: CHO IC50 w/o AG
[11] = with aminoguanidine (AG), read-out: CHO-MG* IC50 w/ AG
[12] = without aminoguanidine (AG), read-out: CHO-MG* IC50 w/o AG

**Q.** What does the source list for `CNCCCCNCCCCNCc1c2ccccc2c(CNCCCCNCCCCNC)c2ccccc12` [Compound B]?
**A.** IC50 (MALME-3M cells; [7]): 0.062 µM; sensitivity of MALME-3M in NCI 60-cancer cell screen (melanoma cell lines; 10 μM): most sensitive cell line

**Q.** `N=C(N)NN` [Aminoguanidine, aminoguanidine] was tested. Which toxicity to cells ([1]; 1 mM, incubated with cells for 24 h prior to compound addition) did it give?
**A.** non-toxic

**Q.** With `CNCCCCNCCCCNCc1cc(CNCCCCNCCCCNC)cc(CNCCCCNCCCCNC)c1` [Compound 6b] as the compound, how does the “effectiveness as PTI agent in vitro” value (DFMO-treated cells; in vitro) read?
**A.** effective

**Q.** And the “metabolic stability to amine oxidases” value (amine oxidases)?
**A.** enhanced stability

**Q.** And the “proliferation (Ki67 histological stain)” value (PanO2 derived tumors)?
**A.** reduced proliferation

**Q.** And the “cleaved caspase staining (apoptosis)” value (PanO2 derived tumors; PTI by itself)?
**A.** apoptosis is occurring

**Q.** difluoromethylornithine [DFMO] was tested. Which cell viability (DFMO-treated cells; DFMO dosed at its IC50, Spd 1 μM, PTI not above its IC10, relative to untreated control) did it give?
**A.** 50%

**Q.** And the IC50 [2]?
**A.** < 5000 µM

**Q.** What about the “relative ATP13A3 expression (normalized using β-actin)” value ([3]; 48 h IC50 DFMO dose (e.g., 8 mM)) of the same compound?
**A.** significant increase

**Q.** What about the “levels of Cav-1” value ([3]; in the presence of DFMO) of the same compound?
**A.** not dramatically changed

**Q.** What about the “relative ATP13A3 expression (normalized using β-actin)” value ([4]; Bx-PC3, 48 h IC50 DFMO dose (e.g., 8 mM)) of the same compound?
**A.** significant increase

**Q.** And the “levels of Cav-1” value ([4]; BxPC-3, in the presence of DFMO)?
**A.** not dramatically changed

**Q.** And the IC50 (L3.6pl cells [5])?
**A.** 8000 µM

**Q.** What about the “proliferation (Ki67 histological stain)” value (PanO2 derived tumors) of the same compound?
**A.** reduced proliferation

**Q.** And the “effectiveness against L3.6pl cells” value (L3.6pl cells [6]; DFMO alone)?
**A.** effective

**Q.** With `O=C1Nc2ccc(I)cc2/C1=C/c1cc(Br)c(O)c(Br)c1` [GW5074] as the compound, how does the “reduction in tumor size” value (L3.6pl pancreatic tumor) read?
**A.** statistically significant reduction

**Q.** What about the “effectiveness against L3.6pl cells” value (L3.6pl cells [6]; in combination with DFMO) of the same compound?
**A.** effective

**Q.** With `NCCCCNCCCCNCc1ccc(CNCCCCNCCCCN)c2ccccc12` [Compound A w/o Me] as the compound, how does the “metabolic stability to amine oxidases” value (amine oxidases) read?
**A.** less selective and less metabolically stable

**Q.** And the “IC50 ratio (MALME-3/MALME-3M)” value (MALME-3M cells; [8])?
**A.** 71

**Q.** And the IC50 (MALME-3M cells; in the presence of aminoguanidine (1 mM), read-out: MALME-3M IC50)?
**A.** 0.018 µM

**Q.** And the “IC50 ratio w/ AG (CHO-MG*/CHO)” value (CHO cells; with aminoguanidine (AG))?
**A.** >4545

**Q.** And the IC50 (CHO cells; [9])?
**A.** 0.022 µM

**Q.** And the “IC50 ratio w/o AG (CHO-MG*/CHO)” value (CHO cells; without aminoguanidine (AG))?
**A.** 9.5

**Q.** What about the IC50 (CHO cells; [10]) of the same compound?
**A.** 5.5 µM

**Q.** And the IC50 (MALME-3 cells)?
**A.** 1.21 µM

**Q.** What about the IC50 (CHO-MG* cells; [11]) of the same compound?
**A.** > 100 µM

**Q.** And the IC50 (CHO-MG* cells; [12])?
**A.** 52.1 µM

**Q.** How did the “metabolic stability to amine oxidases” value (amine oxidases) turn out when `CNCCCCNCCCCNCc1ccc(CNCCCCNCCCCNC)c2ccccc12` [Compound A] was run?
**A.** metabolically stable

**Q.** What about the IC50 (MALME-3M cells; [7]) of the same compound?
**A.** 0.014 µM

**Q.** What about the “IC50 ratio (MALME-3/MALME-3M)” value (MALME-3M cells; [8]) of the same compound?
**A.** 59

**Q.** And the “CHO-MG*/CHO IC50 ratio (selectivity for CHO cells with active PTS)” value (CHO cells; summary bound, also when AG is removed)?
**A.** > 2200

**Q.** And the “IC50 ratio w/ AG (CHO-MG*/CHO)” value (CHO cells; with aminoguanidine (AG))?
**A.** >2272

**Q.** And the IC50 (CHO cells; [9])?
**A.** 0.044 µM

**Q.** What about the “IC50 ratio w/o AG (CHO-MG*/CHO)” value (CHO cells; without aminoguanidine (AG)) of the same compound?
**A.** >2564

**Q.** What about the IC50 (CHO cells; [10]) of the same compound?
**A.** 0.039 µM

**Q.** What about the IC50 (MALME-3 cells) of the same compound?
**A.** 0.82 µM

**Q.** And the “sensitivity of MALME-3M in NCI 60-cancer cell screen” value (melanoma cell lines; 10 μM)?
**A.** most sensitive cell line

**Q.** What about the “growth of cancer cell lines in NCI 60-cancer cell screen” value (melanoma cell lines; 10 μM, MALME-3M, M14, MDA-MB-435, SK-MEL2, SK-MEL-28, SK-MEL-5, UACC-257, UACC-62) of the same compound?
**A.** decreased growth of cancer cell lines

**Q.** What about the “sensitivity of LOX IMVI melanoma cell line” value (melanoma cell lines; LOX IMVI (high Cav-1, low Cav-2)) of the same compound?
**A.** most resistant melanoma cell line

**Q.** And the IC50 (CHO-MG* cells; [11])?
**A.** > 100 µM

**Q.** What about the IC50 (CHO-MG* cells; [12]) of the same compound?
**A.** > 100 µM

**Q.** What about the “competition with spermidine for cell entry (percent viability)” value ([1]; 96 h at 37 degrees Celsius, 0.02 μM (MALME-3M cells), 0.8 μM (MALME-3 control cells)) of the same compound?
**A.** competes with Spd for cell entry
